# Test results reported in US20130217664A1, “NOVEL COMPOUNDS USEFUL FOR THE TREATMENT OF DEGENERATIVE AND INFLAMMATORY DISEASES” (priority 2012, published 2013).
# Read-outs that look alike come from different tables or passages of the source.
# Assays:
# [1] = target: T1, human JAK3 (Homo sapiens, UniProt P52333); assay: JAK3 inhibition assay; assay type: biochemical; conditions: recombinant human JAK3 catalytic domain; polyGT substrate
# T1 construct: catalytic domain (amino acids 781-1124; catalog number PV3855); purchased Invitrogen PV3855
# T1 sequence (P52333 781-1124): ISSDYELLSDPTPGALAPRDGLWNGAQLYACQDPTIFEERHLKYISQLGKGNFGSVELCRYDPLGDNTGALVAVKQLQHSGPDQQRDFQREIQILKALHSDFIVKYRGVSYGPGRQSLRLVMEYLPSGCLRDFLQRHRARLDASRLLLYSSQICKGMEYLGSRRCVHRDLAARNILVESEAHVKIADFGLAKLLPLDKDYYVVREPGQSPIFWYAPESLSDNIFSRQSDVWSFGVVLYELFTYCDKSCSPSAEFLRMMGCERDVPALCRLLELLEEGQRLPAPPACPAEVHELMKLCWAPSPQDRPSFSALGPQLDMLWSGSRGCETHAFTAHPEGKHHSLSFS
# Procedure, shortened: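 Radiometric kinase assay: 0.5 ng JAK3 with 2.5 μg polyGT in Tris pH 7.5/MgCl2 buffer, 1 μM ATP plus 0.25 μCi 33P-γ-ATP, 1% DMSO, 45 min at 30 °C, stopped with phosphoric acid.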
# [2] = target: T2, human TYK2 (Homo sapiens, UniProt P29597); assay: TYK2 inhibition assay; assay type: biochemical; conditions: recombinant human TYK2 catalytic domain, polyGT substrate
# T2 construct: catalytic domain (amino acids 871-1187; catalog number 08-147); purchased Carna Biosciences 08-147
# T2 sequence (P29597 871-1187): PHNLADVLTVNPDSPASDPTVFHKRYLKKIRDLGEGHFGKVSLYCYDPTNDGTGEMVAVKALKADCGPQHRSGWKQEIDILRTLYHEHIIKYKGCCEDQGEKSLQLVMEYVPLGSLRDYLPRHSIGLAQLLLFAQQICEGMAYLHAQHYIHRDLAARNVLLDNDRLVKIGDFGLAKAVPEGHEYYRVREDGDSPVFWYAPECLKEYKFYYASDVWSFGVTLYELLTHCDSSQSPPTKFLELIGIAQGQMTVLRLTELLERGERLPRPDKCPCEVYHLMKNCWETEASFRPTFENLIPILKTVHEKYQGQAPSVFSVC
# Procedure, shortened: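 Radiometric kinase reaction run 90 min at 30 °C, stopped with phosphoric acid, washed and scintillation-counted.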
# [3] = system: pSTAT1(2)-luciferase reporter in HeLa cells triggered with human OSM; assay: JAK-STAT signalling assay; assay type: cell-based; conditions: HeLa cells, pSTAT1(2)-luciferase reporter, human OSM 33 ng/mL, read-out: JAK-STAT IC50
# Experimental: JAK-STAT Signalling Assay
# HeLa cells were maintained in Dulbecco's Modified Eagle's Medium (DMEM) containing 10% heat inactivated fetal calf serum, 100 U/mL penicillin and 100 μg/mL streptomycin. HeLa cells were used at 70% confluence for transfection. 20,000 cells in 87 μL cell culture medium were transiently transfected with 40 ng pSTAT1(2)-luciferase reporter (Panomics), 8 ng of LacZ reporter as internal control reporter and 52 ng of pBSK using 0.32 μL Jet-PEI (Polyplus) as transfection reagent per well in 96-well plate format. After overnight incubation at 37° C., 5% CO2, transfection medium was removed. 81 μL of DMEM+1.5% heat inactivated fetal calf serum was added. 9 μL compound at 10× concentration was added for 60 min and then 10 μL of human OSM (Peprotech) at 33 ng/mL final concentration.
# After overnight incubation at 37° C., 5% CO2 cells were lysed by adding 100 μL lysis buffer/well (PBS, 0.9 mM CaCl2, 0.5 mM MgCl2, 10% Trehalose, 0.05% Tergitol NP9, 0.3% BSA).
# 40 μL of cell lysate was used to read β-galactosidase activity by adding 180 μL β-Gal solution (30 μL ONPG 4 mg/mL+150 μL β-Galactosidase buffer (0.06 M Na2HPO4, 0.04 M NaH2PO4, 1 mM MgCl2)) for 20 min.
# Luciferase activity was measured using 40 μL cell lysate plus 40 μL of Steadylite as described by the manufacturer (Perkin Elmer), on the Envision (Perkin Elmer).
# The positive and negative controls were used to calculate z′ and ‘percent inhibition’ (PIN) values.
# Percentage inhibition=((fluorescence determined in the presence of vehicle−fluorescence determined for sample with test compound present)divided by(fluorescence determined in the presence of vehicle−fluorescence determined for sample without trigger))*100.
# PIN values were plotted for compounds tested in dose-response and EC50 values were derived.
# [4] = target: T3, human JAK1 (Homo sapiens, UniProt P23458); assay: JAK1 inhibition assay (polyGT substrate / Ulight-JAK1 peptide); assay type: biochemical; conditions: recombinant human JAK1 catalytic domain; polyGT or Ulight-JAK1 peptide assay
# T3 construct: catalytic domain, amino acids 866-1154; catalog number PV4774; purchased Invitrogen PV4774
# T3 sequence (P23458 866-1154): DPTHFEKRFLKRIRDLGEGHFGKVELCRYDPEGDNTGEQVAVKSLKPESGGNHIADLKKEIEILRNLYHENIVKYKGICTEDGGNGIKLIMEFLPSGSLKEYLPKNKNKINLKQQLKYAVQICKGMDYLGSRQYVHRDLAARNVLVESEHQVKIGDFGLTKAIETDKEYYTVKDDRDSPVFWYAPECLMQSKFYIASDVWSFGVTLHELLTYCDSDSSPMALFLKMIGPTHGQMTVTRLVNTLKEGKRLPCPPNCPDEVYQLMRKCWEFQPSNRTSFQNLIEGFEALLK
# Procedure, shortened: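 Signal scaled between vehicle and 10 μM staurosporine. Radiometric polyGT reactions ran 45 min at 30 °C, counted after phosphoric-acid stop. Ulight peptide reactions ran 60 min at room temperature, fluorescence read after adding Eu-PT66 detection mix with EDTA.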
Structure (SMILES),IC50 [1] [nM],IC50 [2] [nM],"IC50 ([3]; Homo sapiens, HeLa) [nM]",IC50 [4] [nM],IC50 [3] [nM]
"COC(=O)NCc1ccc(N(C)c2cc3c(cn2)ncn3C)c(F)c1 [Compound 283, {3-Fluoro-4-[methyl-(1-methyl-1H-imidazo[4,5-c]pyridin-6-yl)-amino]-benzyl}-carbamic acid methyl ester]",> 1000,101 to 500,> 1000,0.01 to 100,
"CCc1cc(C2=CCN(C(=O)C(O)C(F)(F)F)CC2)ccc1N(C)c1cc2c(cn1)ncn2C (stereo not drawn) [Compound 230, 1-(4-(3-ethyl-4-(methyl(1-methyl-1H-imidazo[4,5-c]pyridin-6-yl)amino)phenyl)-5,6-dihydropyridin-1(2H)-yl)-3,3,3-trifluoro-2-hydroxypropan-1-one]",0.01 to 100,0.01 to 100,1 to 500,0.01 to 100,
"CCc1cc(-c2cnc(OCC#N)nc2)ccc1N(C)c1cc2c(cn1)ncn2C [Compound 217, 2-(5-(3-ethyl-4-(methyl(1-methyl-1H-imidazo[4,5-c]pyridin-6-yl)amino)phenyl)pyrimidin-2-yloxy)acetonitrile]",> 1000,101 to 500,> 1000,0.01 to 100,
"CCc1cc(-c2cnn(CCN3CCCC3)c2)ccc1N(C)c1cc2c(cn1)ncn2C [Compound 219, N-(2-ethyl-4-(1-(2-(pyrrolidin-1-yl)ethyl)-1H-pyrazol-4-yl)phenyl)-N,1-dimethyl-1H-imidazo[4,5-c]pyridin-6-amine]",> 1000,0.01 to 100,1 to 500,0.01 to 100,
"CCc1cc(-c2cnc(NC)nc2)ccc1N(C)c1cc2c(cn1)ncn2C [Compound 211, N-(2-Ethyl-4-(2-(methylamino)pyrimidin-5-yl)phenyl)-N,1-dimethyl-1H-imidazo[4,5-d]pyridin-6-amine]",501 to 1000,0.01 to 100,501 to 1000,0.01 to 100,
"CCc1cc(-c2cccc(C#N)c2)ccc1N(C)c1cc2c(cn1)ncn2C [Compound 163, 3′-ethyl-4′-(methyl(1-methyl-1H-imidazo[4,5-c]pyridin-6-yl)amino)biphenyl-3-carbonitrile]",501 to 1000,501 to 1000,501 to 1000,0.01 to 100,
COc1cc(C2CCN(S(C)(=O)=O)CC2)ncc1N(C)c1cc2c(cn1)ncn2C [Compound 276],> 1000,> 1000,,0.01 to 100,> 1000
"CCc1cc(C2=CCN(C(=O)Nc3ncns3)CC2)ccc1N(C)c1cc2c(cn1)ncn2C [Compound 257, 4-(3-Ethyl-4-(methyl(1-methyl-1H-imidazo[4,5-c]pyridin-6-yl)amino)phenyl)-N-(1,2,4-thiadiazol-5-yl)-5,6-dihydropyridine-1(2H)-carboxamide]",0.01 to 100,0.01 to 100,1 to 500,0.01 to 100,
"CCc1cc(-c2cnc(C(C)C)nc2)ccc1N(C)c1cc2c(cn1)ncn2C [Compound 140, N-(2-ethyl-4-(2-isopropylpyrimidin-5-yl)phenyl)-N,1-dimethyl-1H-imidazo[4,5-c]pyridin-6-amine]",> 1000,101 to 500,> 1000,0.01 to 100,
"CCc1cc(C2=CCN(C(=O)NC3(C)CC3)CC2)ccc1N(C)c1cc2c(cn1)ncn2C [Compound 202, 4-(3-ethyl-4-(methyl(1-methyl-1H-imidazo[4,5-c]pyridin-6-yl)amino)phenyl)-N-(1-methylcyclopropyl)-5,6-dihydropyridine-1(2H)-carboxamide]",101 to 500,0.01 to 100,1 to 500,0.01 to 100,
"CCN(c1cc2c(cn1)ncn2C)c1ccc(C#N)cc1F [Compound 266, 4-(ethyl(1-methyl-1H-imidazo[4,5-c]pyridin-6-yl)amino)-3-fluorobenzonitrile]",> 1000,> 1000,> 1000,> 1000,
"CCc1cc(C2=CCN(S(=O)(=O)CC#N)CC2)ccc1N(C)c1cc2c(cn1)ncn2C [Compound 247, 2-(4-(3-ethyl-4-(methyl(1-methyl-1H-imidazo[4,5-c]pyridin-6-yl)amino)phenyl)-5,6-dihydropyridin-1(2H)-ylsulfonyl)acetonitrile]",0.01 to 100,0.01 to 100,1 to 500,0.01 to 100,
"CN(c1cc2c(cn1)ncn2C)c1ccc(C2CN(S(C)(=O)=O)C2)cc1F [Compound 277, [2-Fluoro-4-(1-methanesulfonyl-azetidin-3-yl)-phenyl]-methyl-(1-methyl-1H-imidazo[4,5-c]pyridin-6-yl)-amine]",101 to 500,501 to 1000,,0.01 to 100,> 1000
"CCc1cc(-c2cnccc2Cl)ccc1N(C)c1cc2c(cn1)ncn2C [Compound 155, N-(4-(4-chloropyridin-3-yl)-2-ethylphenyl)-N,1-dimethyl-1H-imidazo[4,5-c]pyridin-6-amine]",101 to 500,0.01 to 100,501 to 1000,0.01 to 100,

# Continued, values first:
IC50 [1] [nM],IC50 [2] [nM],"IC50 ([3]; Homo sapiens, HeLa) [nM]",IC50 [4] [nM],IC50 [3] [nM],Structure (SMILES)
101 to 500,0.01 to 100,,0.01 to 100,1 to 500,"CCC(=O)N1CCC(c2ccc(N(C)c3cc4c(cn3)ncn4C)c(CC)c2)CC1 [Compound 223, 1-(4-(3-ethyl-4-(methyl(1-methyl-1H-imidazo[4,5-c]pyridin-6-yl)amino)phenyl)piperidin-1-yl)propan-1-one]"
> 1000,> 1000,> 1000,0.01 to 100,,"CCc1cc(CNC)ccc1N(C)c1cc2c(cn1)ncn2C [Compound 135, N-(2-ethyl-4-((methylamino)methyl)phenyl)-N,1-dimethyl-1H-imidazo[4,5-c]pyridin-6-amine]"
501 to 1000,0.01 to 100,1 to 500,0.01 to 100,,"CCc1cc(OC)ccc1N(C)c1cc2c(cn1)ncn2C [Compound 271, N-(2-ethyl-4-methoxyphenyl)-N,1-dimethyl-1H-imidazo[4,5-c]pyridin-6-amine]"
501 to 1000,0.01 to 100,501 to 1000,0.01 to 100,,"CCc1cc(CN2CCN(S(C)(=O)=O)CC2)ccc1N(C)c1cc2c(cn1)ncn2C [Compound 136, N-(2-Ethyl-4-((4-(methylsulfonyl)piperazin-1-yl)methyl)phenyl)-N,1-dimethyl-1H-imidazo[4,5-c]pyridin-6-amine]"
101 to 500,0.01 to 100,501 to 1000,0.01 to 100,,"CCc1cc(C2=CCN(C(=O)C3(C#N)CC3)CC2)ccc1N(C)c1cc2c(cn1)ncn2C [Compound 198, 1-(4-(3-ethyl-4-(methyl(1-methyl-1H-imidazo[4,5-c]pyridin-6-yl)amino)phenyl)-1,2,3,6-tetrahydropyridine-1-carbonyl)cyclopropane-carbonitrile]"
> 1000,> 1000,> 1000,101 to 500,,"CCc1cc(CNC(=O)NC)ccc1N(C)c1cc2c(cn1)ncn2C [Compound 270, 1-(3-ethyl-4-(methyl(1-methyl-1H-imidazo[4,5-c]pyridin-6-yl)amino)benzyl)-3-methylurea]"
> 1000,> 1000,> 1000,101 to 500,,"CCc1cc(CN2CCN(C)CC2)ccc1N(C)c1cc2c(cn1)ncn2C [Compound 141, N-(2-ethyl-4-((4-methylpiperazin-1-yl)methyl)phenyl)-N,1-dimethyl-1H-imidazo[4,5-c]pyridin-6-amine]"
